Results on 3 molecules are retold here after PMC11599936, “New-to-nature CO2-dependent acetyl-CoA assimilation enabled by an engineered B12-dependent acyl-CoA mutase” (Nature Communications, 2024).

Common to all, as to assay type: biochemical
Experiment [1] deals with T1, 2-hydroxyisobutyryl-CoA mutase from Aquincola tertiaricarbonis (Aquincola tertiaricarbonis, UniProt I3VE74+I3VE77).
T1 construct: gene hcmA
T1 sequence (I3VE77 1-562): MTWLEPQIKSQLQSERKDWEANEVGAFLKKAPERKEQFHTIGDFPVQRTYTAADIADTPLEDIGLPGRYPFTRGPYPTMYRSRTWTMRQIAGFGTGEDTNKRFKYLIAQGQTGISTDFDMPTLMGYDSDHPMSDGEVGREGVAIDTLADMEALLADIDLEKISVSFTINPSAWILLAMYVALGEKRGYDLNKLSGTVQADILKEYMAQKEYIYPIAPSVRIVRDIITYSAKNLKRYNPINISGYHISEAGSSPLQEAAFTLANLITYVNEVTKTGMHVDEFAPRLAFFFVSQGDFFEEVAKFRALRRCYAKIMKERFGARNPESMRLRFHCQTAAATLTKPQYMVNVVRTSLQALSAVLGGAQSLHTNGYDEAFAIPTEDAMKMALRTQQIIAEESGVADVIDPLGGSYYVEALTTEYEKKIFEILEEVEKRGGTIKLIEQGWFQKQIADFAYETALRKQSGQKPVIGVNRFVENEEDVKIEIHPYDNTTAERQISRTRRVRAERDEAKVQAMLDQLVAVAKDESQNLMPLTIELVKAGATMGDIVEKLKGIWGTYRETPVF
T1 sequence (I3VE74 1-136): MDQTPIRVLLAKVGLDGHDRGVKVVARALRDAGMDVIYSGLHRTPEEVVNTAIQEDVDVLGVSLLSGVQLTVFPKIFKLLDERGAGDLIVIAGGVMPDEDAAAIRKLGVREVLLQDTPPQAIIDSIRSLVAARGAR
Put plainly: coupled PhaJ/Etr1p assay, NADPH at […] nm. To be noted: 12.5 µM coenzyme B12, 50 mM NaPO4 pH 7, 30 °C.

A further experiment addresses T2, AbfT (Clostridium aminobutyricum, UniProt Q9RM86).
T2 construct: recombinant from E. coli BL21 (DE3), Ni-NTA purified
T2 sequence (Q9RM86 1-438): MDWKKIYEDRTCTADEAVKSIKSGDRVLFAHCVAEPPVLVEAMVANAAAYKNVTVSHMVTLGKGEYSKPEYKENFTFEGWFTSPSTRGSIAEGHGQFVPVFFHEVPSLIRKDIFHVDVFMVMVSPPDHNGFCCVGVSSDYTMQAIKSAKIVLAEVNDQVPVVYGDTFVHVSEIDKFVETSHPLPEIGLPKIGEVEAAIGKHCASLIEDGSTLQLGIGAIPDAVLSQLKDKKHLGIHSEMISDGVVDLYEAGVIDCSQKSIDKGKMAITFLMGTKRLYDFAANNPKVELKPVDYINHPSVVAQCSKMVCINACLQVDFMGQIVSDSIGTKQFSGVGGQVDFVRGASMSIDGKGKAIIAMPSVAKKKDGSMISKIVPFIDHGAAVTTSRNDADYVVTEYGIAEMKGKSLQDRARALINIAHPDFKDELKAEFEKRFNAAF
Put plainly: LC-MS CoA-transfer assay. To be noted: 100 mM HEPES pH 7.5, 10 mM MgCl2, 30 °C.

A further experiment deals with T3, Pct (Cupriavidus necator, UniProt Q0K874).
T3 construct: recombinant from E. coli BL21 (DE3), Ni-NTA purified
T3 sequence (Q0K874 1-542): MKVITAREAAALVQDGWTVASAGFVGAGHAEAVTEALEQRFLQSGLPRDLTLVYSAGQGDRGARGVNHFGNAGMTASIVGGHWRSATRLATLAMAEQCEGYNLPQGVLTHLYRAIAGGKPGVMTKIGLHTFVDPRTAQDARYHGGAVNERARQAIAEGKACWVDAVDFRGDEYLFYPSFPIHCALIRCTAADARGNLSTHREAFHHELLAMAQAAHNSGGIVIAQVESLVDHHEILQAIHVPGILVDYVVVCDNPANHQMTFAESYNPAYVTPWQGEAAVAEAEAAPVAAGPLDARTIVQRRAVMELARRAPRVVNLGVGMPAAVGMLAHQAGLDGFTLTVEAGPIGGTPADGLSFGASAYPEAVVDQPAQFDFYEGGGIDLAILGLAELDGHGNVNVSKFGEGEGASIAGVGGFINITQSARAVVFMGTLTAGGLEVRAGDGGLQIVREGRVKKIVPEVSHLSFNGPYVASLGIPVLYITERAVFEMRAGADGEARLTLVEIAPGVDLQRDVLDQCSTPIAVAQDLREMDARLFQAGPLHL
The experiment can be described thus: LC-MS CoA-transfer assay. The note with it: 100 mM HEPES pH 7.5, 10 mM MgCl2, 30 °C.

The mark [2] stands for this setting: CoA donor acetyl-CoA 100 µM, 1 mM acid.

On to `CC(C)(O)C(=O)SCCNC(=O)CCNC(=O)[C@H](O)C(C)(C)COP(=O)(O)OP(=O)(O)OC[C@H]1O[C@@H](n2cnc3c(N)ncnc32)[C@H](O)[C@@H]1OP(=O)(O)O` [2-hydroxyisobutyryl-CoA], for which, in experiment [1], the “coupled PhaJ/Etr1p assay, NADPH at 340 nm” value is recorded as “we confirmed functionality of this purified enzyme with its native substrate 2-hydroxyisobutyryl-CoA”.

Consider `O=C(O)CCO` [3-hydroxypropionate], for which the “LC-MS CoA-transfer assay” value was “performed best with 3-HP as CoA-acceptor and acetyl-CoA as CoA-donor” on AbfT (setting [2]); “performed best with 3-HP as CoA-acceptor and acetyl-CoA as CoA-donor” at Pct (setting [2]). On to `CC(=O)SCCNC(=O)CCNC(=O)[C@H](O)C(C)(C)COP(=O)(O)OP(=O)(O)OC[C@H]1O[C@@H](n2cnc3c(N)ncnc32)[C@H](O)[C@@H]1OP(=O)(O)O` [acetyl-CoA], for which the “LC-MS CoA-transfer assay” value at AbfT (CoA acceptor 3-HP 1 mM) was “performed best with 3-HP as CoA-acceptor and acetyl-CoA as CoA-donor”; at Pct (CoA acceptor 3-HP 1 mM), “performed best with 3-HP as CoA-acceptor and acetyl-CoA as CoA-donor”.
